The results in this text go back to PubChem BioAssay AID328 (DTP/NCI, 2004).

SMILES strings stand for the structures. Values joined by “and” are separate entries in the source; they are usually repeats but may differ in a detail not shown here. Equal values may be shown once. Inconclusive results and toxic doses are left out.

This assay deals with BDF1 mice, P388 leukemia ip, median survival T/C. The experiment in a line: NCI In Vivo Anticancer Drug Screen. Data for tumor model P388 Leukemia (intraperitoneal) in B6D2F1 (BDF1) mice. As to conditions: endpoint: median survival time, higher = longer survival. Summed up:
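Read-out is survival of treated animals expressed relative to the vehicle group, as a T/C ratio.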

Setting [1] is: dose: 50.0 mg/kg/injection, schedule: Q01DX009 (ip), vehicle: saline with Tween-80.
Where [2] appears, read: dose: 100.0 mg/kg/injection, schedule: Q01DX009 (ip), vehicle: saline with Tween-80.
Where [3] appears, read: dose: 12.5 mg/kg/injection, schedule: Q01DX009 (ip), vehicle: saline with Tween-80.
Where [4] appears, read: dose: 25.0 mg/kg/injection, schedule: Q01DX009 (ip), vehicle: saline with Tween-80.
Where [5] appears, read: dose: 100.0 mg/kg/injection, schedule: Q04DX003 (ip), vehicle: saline.
Where [6] appears, read: dose: 200.0 mg/kg/injection, schedule: Q04DX003 (ip), vehicle: saline.
Where [7] appears, read: dose: 25.0 mg/kg/injection, schedule: Q04DX003 (ip), vehicle: saline with Tween-80.
Where [8] appears, read: dose: 100.0 mg/kg/injection, schedule: Q04DX003 (ip), vehicle: saline with Tween-80.
Setting [9] is: dose: 50.0 mg/kg/injection, schedule: Q04DX003 (ip), vehicle: saline.
Setting [10] is: dose: 200.0 mg/kg/injection, schedule: Q04DX003 (ip), vehicle: saline with Tween-80.
Setting [11] is: dose: 400.0 mg/kg/injection, schedule: Q04DX003 (ip), vehicle: saline with Tween-80.
Where [12] appears, read: dose: 100.0 mg/kg/injection, schedule: Q04DX003 (ip), vehicle: Klucel (hydroxypropylcellulose) (HPC).
Setting [13] is: dose: 200.0 mg/kg/injection, schedule: Q04DX003 (ip), vehicle: Klucel (hydroxypropylcellulose) (HPC).
Where [14] appears, read: dose: 400.0 mg/kg/injection, schedule: Q04DX003 (ip), vehicle: Klucel (hydroxypropylcellulose) (HPC).

On to `O=C1OC(N2Cc3ccccc3C2=O)c2ccccc21` (stereo not drawn), for which the T/C by setting is: under setting [1], 100 % of control; under setting [2], 100 % of control; (dose: 200.0 mg/kg/injection, schedule: Q01DX009 (ip), vehicle: saline with Tween-80) 94 % of control.
Consider `O=C(COc1cccc(Cl)c1Cl)Nc1cccnc1`, for which the T/C runs as follows: (dose: 37.5 mg/kg/injection, schedule: Q01DX001 (ip), vehicle: saline with Tween-80) 100 % of control; (dose: 75.0 mg/kg/injection, schedule: Q01DX001 (ip), vehicle: saline with Tween-80) 104 % of control; (dose: 150.0 mg/kg/injection, schedule: Q01DX001 (ip), vehicle: saline with Tween-80) 100 % of control.
Take `CC1=CC(=NC(=O)CBr)C=C/C1=N\S(=O)(=O)c1ccccc1`: the T/C is 113 % of control (dose: 6.25 mg/kg/injection, schedule: Q01DX009 (ip), vehicle: saline with Tween-80); 111 % of control under setting [3]; 106 % of control under setting [4].
As for `COC(=O)C1(C)CSCCC1=O` (stereo not drawn), the T/C (dose: 100.0 mg/kg/injection, schedule: Q01DX009 (ip), vehicle: saline) was 105 % of control; the T/C under setting [5] is 100 % of control; the T/C (dose: 200.0 mg/kg/injection, schedule: Q01DX009 (ip), vehicle: saline) is 105 % of control; the T/C under setting [6] is 100 % of control; the T/C (dose: 400.0 mg/kg/injection, schedule: Q01DX009 (ip), vehicle: saline) is 95 % of control; the T/C (dose: 400.0 mg/kg/injection, schedule: Q04DX003 (ip), vehicle: saline) was 95 % of control.
Turning to `C/C=C/N=NNc1ccccc1OC`, the T/C is 113 % of control under setting [7]; 104 % of control (dose: 50.0 mg/kg/injection, schedule: Q04DX003 (ip), vehicle: saline with Tween-80); 104 % of control under setting [8].
With `CCCN(CCC)CC(C)O` (stereo not drawn), the T/C was 109 % of control under setting [9], 100 % of control under setting [5] and 95 % of control under setting [6].
Take `CCOC(=O)c1c(C)nc(C)c(C(=O)OCC)c1-c1cccnc1`: the T/C (dose: 12.5 mg/kg/injection, schedule: Q01DX009 (ip), vehicle: other) was 101 % of control; the T/C (dose: 25.0 mg/kg/injection, schedule: Q01DX009 (ip), vehicle: other) is 100 % of control; the T/C (dose: 50.0 mg/kg/injection, schedule: Q01DX009 (ip), vehicle: other) is 100 % of control; the T/C (dose: 100.0 mg/kg/injection, schedule: Q01DX009 (ip), vehicle: other) was 110 % of control; the T/C (dose: 200.0 mg/kg/injection, schedule: Q01DX009 (ip), vehicle: other) was 112 % of control.
For the molecule `COc1cc2ccc(CCN)cc2cc1OC`, the T/C is, setting by setting: under setting [3], 95 % of control; under setting [4], 108 % of control; under setting [1], 87 % of control.
The corresponding values for `CCCCCCCCCCCCCCCC[N+]1([O-])CCCC1` are 110 % of control, 99 % of control and 108 % of control.
Turning to `O=C(/C=N/O)c1ccccc1`, the T/C is 100 % of control (dose: 50.0 mg/kg/injection, schedule: Q04DX003 (ip), vehicle: gum acacia); 96 % of control (dose: 100.0 mg/kg/injection, schedule: Q04DX003 (ip), vehicle: gum acacia); 96 % of control (dose: 200.0 mg/kg/injection, schedule: Q04DX003 (ip), vehicle: gum acacia).
For the molecule `O=C1CCC(=O)N1CC(O)COc1ccc(Cl)cc1` (stereo not drawn), the T/C is 100 % of control under setting [8], 95 % of control under setting [10] and 100 % of control under setting [11].
On to `COc1cccc(N=C(N)N=C(N)N)c1`, for which the T/C is 95 % of control (dose: 25.0 mg/kg/injection, schedule: Q04DX003 (ip), vehicle: saline); 100 % of control (dose: 50.0 mg/kg/injection, schedule: Q01DX001 (ip), vehicle: saline); 91 % of control under setting [9]; 100 % of control (dose: 100.0 mg/kg/injection, schedule: Q01DX001 (ip), vehicle: saline); 95 % of control under setting [5].
Consider `Cc1ccc2ccccc2n1`, for which the T/C was 87 % of control under setting [5] and 91 % of control under setting [6].
For the molecule `C=Cn1ccnc1C(O)(c1ccc(Cl)cc1)c1ccc(Cl)cc1`, under setting [2], the T/C is 116 % of control.
For `COc1cccc(/C=C2\SC(=S)N(CCCN3CCOCC3)C2=O)c1OC`, the T/C by setting is: under setting [1], 91 % of control; under setting [2], 88 % of control.
`COC(=O)C1CCCC23CC(CC12)C(C)(C)C3Br` (stereo not drawn): the T/C under setting [12] is 95 % of control, the T/C under setting [13] is 100 % of control and the T/C under setting [14] was 90 % of control.
On to `O=C1NC(=O)C(CSCc2ccccc2)(CSCc2ccccc2)N1`, for which the T/C (dose: 3.12 mg/kg/injection, schedule: Q04DX003 (ip), vehicle: saline with Tween-80) was 101 % of control; the T/C (dose: 6.25 mg/kg/injection, schedule: Q04DX003 (ip), vehicle: saline with Tween-80) was 102 % of control; the T/C (dose: 12.5 mg/kg/injection, schedule: Q04DX003 (ip), vehicle: saline with Tween-80) was 99 % of control; the T/C under setting [4] was 99 % of control; the T/C under setting [7] is 98 % of control; the T/C under setting [1] was 107 % of control. Also, the T/C by setting is: under setting [2], 92 % of control; (dose: 400.0 mg/kg/injection, schedule: Q01DX009 (ip), vehicle: saline with Tween-80) 86 % of control.
As for `CC(=O)c1ccc2c(c1)[nH]c1ccccc12`, the T/C under setting [8] was 100 % of control, the T/C under setting [10] is 86 % of control and the T/C under setting [11] was 95 % of control.
With `Cc1cccc(N)n1` (tested in a mixture with another compound), the T/C is 105 % of control (dose: 12.5 mg/kg/injection, schedule: Q01DX009 (ip), vehicle: saline); 94 % of control (dose: 25.0 mg/kg/injection, schedule: Q01DX009 (ip), vehicle: saline); 89 % of control (dose: 50.0 mg/kg/injection, schedule: Q01DX009 (ip), vehicle: saline).
For the molecule `Oc1cccc2cccnc12`, the T/C runs as follows: under setting [1], 100 % of control; under setting [2], 97 % of control.
Regarding `CC(C)N1CCC(=O)NC1=O`, the T/C by setting is: (dose: 25.0 mg/kg/injection, schedule: Q01DX001 (ip), vehicle: saline sonified) 104 % of control; (dose: 50.0 mg/kg/injection, schedule: Q01DX001 (ip), vehicle: saline sonified) 104 % of control; (dose: 100.0 mg/kg/injection, schedule: Q01DX001 (ip), vehicle: saline sonified) 100 % of control.
Turning to `O=c1oc2cc(O)ccc2c2c1CCCC2`, the T/C by setting is: under setting [12], 95 % of control; under setting [13], 95 % of control; under setting [14], 100 % of control.
Regarding `CCCCCCCC[N+](C)(CCCCCCCC)CCCCCCCC`, the T/C is, setting by setting: (dose: 0.12 mg/kg/injection, schedule: Q01DX009 (ip), vehicle: saline) 108 % of control; (dose: 0.18 mg/kg/injection, schedule: Q01DX009 (ip), vehicle: saline) 116 % of control; (dose: 0.28 mg/kg/injection, schedule: Q01DX009 (ip), vehicle: saline) 166 % of control; (dose: 0.42 mg/kg/injection, schedule: Q01DX009 (ip), vehicle: saline) 95 % of control and 100 % of control; (dose: 0.43 mg/kg/injection, schedule: Q01DX009 (ip), vehicle: saline) 155 % of control; (dose: 0.96 mg/kg/injection, schedule: Q01DX009 (ip), vehicle: saline) 108 % of control and 121 % of control. The T/C (dose: 1.0 mg/kg/injection, schedule: Q01DX009 (ip), vehicle: saline) is 100 % of control; the T/C (dose: 1.3 mg/kg/injection, schedule: Q01DX009 (ip), vehicle: saline) is 112 % of control; the T/C (dose: 2.0 mg/kg/injection, schedule: Q01DX009 (ip), vehicle: saline) is 100 % of control; the T/C (dose: 2.1 mg/kg/injection, schedule: Q01DX009 (ip), vehicle: saline) is 120 % of control; the T/C (dose: 2.32 mg/kg/injection, schedule: Q04DX003 (ip), vehicle: saline) is 104 % of control; the T/C (dose: 3.1 mg/kg/injection, schedule: Q01DX009 (ip), vehicle: saline) is 95 % of control. Besides, the T/C is, setting by setting: (dose: 4.65 mg/kg/injection, schedule: Q04DX003 (ip), vehicle: saline) 95 % of control; (dose: 6.5 mg/kg/injection, schedule: Q01DX001 (ip), vehicle: saline) 100 % of control; (dose: 13.0 mg/kg/injection, schedule: Q01DX001 (ip), vehicle: saline) 100 % of control.
